Results on 18 compounds are retold here after patent US9828396B2, “Alkyne compounds for treatment of complement mediated disorders” (Achillion Pharmaceuticals, Inc., priority 2014, dated 2017).

Some results are limits rather than exact numbers.

The assay deals with Human factor D (Homo sapiens (Human), UniProt P00746). In words: Human Factor D Assay. In kind it is biochemical. Particulars: Human factor D 80 nM, substrate Z-L-Lys-SBzl, assay of Example 12. As to the method: Example 12. Human Factor D Assay
Human factor D (purified from human serum, Complement Technology, Inc.) at 80 nM final concentration is incubated with test compound at various concentrations for 5 minutes at room temperature in 50 mM Tris, 1M NaCl, pH 7.5. A synthetic substrate Z-L-Lys-SBzl and DTNB (Ellman's reagent) are added to final concentrations of 100 μM each. The increase in color is recorded at OD405 nm in a microplate in kinetic mode over 30 minutes with 30 second time points in a spectrofluorimeter. IC50 values are calculated by non-linear regression from the percentage of inhibition of complement factor D activity as a function of test compound concentration.

Human factor D, sequence (P00746 26-253): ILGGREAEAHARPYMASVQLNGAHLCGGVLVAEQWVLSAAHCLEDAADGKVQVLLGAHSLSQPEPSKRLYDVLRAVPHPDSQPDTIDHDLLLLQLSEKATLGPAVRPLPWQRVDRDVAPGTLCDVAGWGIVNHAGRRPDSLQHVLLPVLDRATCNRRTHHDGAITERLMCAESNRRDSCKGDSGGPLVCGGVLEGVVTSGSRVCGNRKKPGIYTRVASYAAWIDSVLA

For `CCS(=O)(=O)NC(=O)C#Cc1ccc2c(C(C)=O)cn(CC(=O)N3C[C@H](F)C[C@H]3C(=O)NCc3cccc(Cl)c3F)c2c1` [Compound 10, (2S,4R)-1-(2-(3-acetyl-6-(3-(ethylsulfonamido)-3-oxoprop-1-ynyl)-1H-indol-1-yl)acetyl)-N-(3-chloro-2-fluorobenzyl)-4-fluoropyrrolidine-2-carboxamide], the half-inhibitory concentration (IC50) (commonly the concentration that inhibits the measured activity by half) was less than 1000 nM.
In turn, `NC(=O)c1nn(CC(=O)N2C[C@H](F)C[C@H]2C(=O)Nc2cccc(Cl)n2)c2ccc(C#Cc3cccnn3)cc12` [Compound 75, 1-(2-((2S,4R)-2-(6-chloropyridin-2-ylcarbamoyl)-4-fluoropyrrolidin-1-yl)-2-oxoethyl)-5-(pyridazin-3-ylethynyl)-1H-indazole-3-carboxamide] showed a 50% inhibitory concentration (IC50) of less than 1000 nM.
The same measure for `NC(=O)c1nn(CC(=O)N2C[C@H](F)C[C@H]2C(=O)Nc2nc(Cl)ccc2F)c2ccc(C#Cc3ncc(F)cn3)cc12` [Compound 81, 1-(2-((2S,4R)-2-(6-chloro-3-fluoropyridin-2-ylcarbamoyl)-4-fluoropyrrolidin-1-yl)-2-oxoethyl)-5-((5-fluoropyrimidin-2-yl)ethynyl)-1H-indazole-3-carboxamide]: less than 1000 nM; for `NC(=O)c1nn(CC(=O)N2[C@@H]3C[C@@H]3C[C@H]2C(=O)Nc2cccc(Br)n2)c2ccc(C#Cc3cc(F)ccn3)cc12` [Compound 65, 1-(2-((1R,3S,5R)-3-(6-bromopyridin-2-ylcarbamoyl)-2-azabicyclo[3.1.0]hexan-2-yl)-2-oxoethyl)-5-((4-fluoropyridin-2-yl)ethynyl)-1H-indazole-3-carboxamide]: less than 1000 nM; for `NC(=O)c1nn(CC(=O)N2C[C@H](F)C[C@H]2C(=O)Nc2cccc(-c3cc(F)c(F)cc3Cl)c2F)c2ccc(C#Cc3ncc(F)cn3)cc12` [Compound 63, 1-(2-((2S,4R)-2-(2′-chloro-2,4′,5′-trifluorobiphenyl-3-ylcarbamoyl)-4-fluoropyrrolidin-1-yl)-2-oxoethyl)-5-((5-fluoropyrimidin-2-yl)ethynyl)-1H-indazole-3-carboxamide]: less than 1000 nM.
The same measure for `NC(=O)c1nn(CC(=O)N2C[C@H](F)C[C@H]2C(=O)NCc2cccc(Cl)c2F)c2cnc(C#Cc3ccccc3)cc12` [Compound 67, 1-(2-((2S,4R)-2-(3-chloro-2-fluorobenzylcarbamoyl)-4-fluoropyrrolidin-1-yl)-2-oxoethyl)-5-(phenylethynyl)-1H-pyrazolo[3,4-c]pyridine-3-carboxamide]: less than 1000 nM; for `CC(=O)c1cn(CC(=O)N2C[C@H](F)C[C@H]2C(=O)NCc2cccc(Cl)c2F)c2ccc(C#Cc3ccccn3)cc12` [Compound 19, (2S,4R)-1-(2-(3-acetyl-5-(pyridin-2-ylethynyl)-1H-indol-1-yl)acetyl)-N-(3-chloro-2-fluorobenzyl)-4-fluoropyrrolidine-2-carboxamide]: less than 1000 nM.
The same measure for `NC(=O)c1nn(CC(=O)N2C[C@H](F)C[C@H]2C(=O)Nc2cncc(-c3cc(F)c(F)cc3Cl)n2)c2ccc(C#Cc3ncc(F)cn3)cc12` [Compound 87, 1-(2-((2S,4R)-2-(6-(2-chloro-4,5-difluorophenyl)pyrazin-2-ylcarbamoyl)-4-fluoropyrrolidin-1-yl)-2-oxoethyl)-5-((5-fluoropyrimidin-2-yl)ethynyl)-1H-indazole-3-carboxamide]: less than 1000 nM.
With `CC(=O)c1cn(CC(=O)N2C[C@H](F)C[C@H]2C(=O)NCc2cccc(Cl)c2F)c2ccc(C#Cc3ncc(O)cn3)cc12` [Compound 13, (2S,4R)-1-(2-(3-acetyl-5-((5-hydroxypyrimidin-2-yl)ethynyl)-1H-indol-1-yl)acetyl)-N-(3-chloro-2-fluorobenzyl)-4-fluoropyrrolidine-2-carboxamide], the IC50 is less than 1000 nM.
The same measure for `NC(=O)c1nn(CC(=O)N2C[C@H](F)C[C@H]2C(=O)NCc2cccc(Cl)c2F)c2ccc(C#Cc3ccc(F)cn3)cc12` [Compound 35, 1-(2-((2S,4R)-2-(3-chloro-2-fluorobenzylcarbamoyl)-4-fluoropyrrolidin-1-yl)-2-oxoethyl)-5-((5-fluoropyridin-2-yl)ethynyl)-1H-indazole-3-carboxamide]: less than 1000 nM.
The same measure for `CC(=O)c1cn(CC(=O)N2[C@@H]3C[C@@H]3C[C@H]2C(=O)Nc2cccc(Br)n2)c2ccc(C#Cc3ncccn3)cc12` [Compound 21, (1R,3S,5R)-2-(2-(3-acetyl-5-(pyrimidin-2-ylethynyl)-1H-indol-1-yl)acetyl)-N-(6-bromopyridin-2-yl)-2-azabicyclo[3.1.0]hexane-3-carboxamide]: less than 1000 nM; for `NC(=O)c1nn(CC(=O)N2C[C@H](F)C[C@H]2C(=O)Nc2cccc(-c3ncccc3Cl)c2F)c2ccc(C#Cc3ncccn3)cc12` [Compound 28, 1-(2-((2S,4R)-2-(3-(3-chloropyridin-2-yl)-2-fluorophenylcarbamoyl)-4-fluoropyrrolidin-1-yl)-2-oxoethyl)-5-(pyrimidin-2-ylethynyl)-1H-indazole-3-carboxamide]: less than 1000 nM; for `NC(=O)c1nn(CC(=O)N2C[C@H](F)C[C@H]2C(=O)Nc2cncc(Br)n2)c2ccc(C#Cc3cnccn3)cc12` [Compound 89, 1-(2-((2S,4R)-2-(6-bromopyrazin-2-ylcarbamoyl)-4-fluoropyrrolidin-1-yl)-2-oxoethyl)-5-(pyrazin-2-ylethynyl)-1H-indazole-3-carboxamide]: less than 1000 nM.
The same measure for `NC(=O)c1nn(CC(=O)N2C[C@H](F)C[C@H]2C(=O)Nc2cccc(-c3cncnc3)c2F)c2ccc(C#Cc3ncccn3)cc12` [Compound 69, 1-(2-((2S,4R)-4-fluoro-2-(2-fluoro-3-(pyrimidin-5-yl)phenylcarbamoyl)pyrrolidin-1-yl)-2-oxoethyl)-5-(pyrimidin-2-ylethynyl)-1H-indazole-3-carboxamide]: less than 1000 nM; for `NC(=O)c1nn(CC(=O)N2C[C@H](F)C[C@H]2C(=O)Nc2cccc(OC(F)(F)F)c2F)c2ccc(C#Cc3ncccn3)cc12` [Compound 38, 1-(2-((2S,4R)-4-fluoro-2-(2-fluoro-3-(trifluoromethoxy)phenyl-carbamoyl)pyrrolidin-1-yl)-2-oxoethyl)-5-(pyrimidin-2-ylethynyl)-1H-indazole-3-carboxamide]: less than 1000 nM.
`NC(=O)c1nn(CC(=O)N2C[C@H](F)C[C@H]2C(=O)Nc2cccc(-c3ccccc3Cl)c2F)c2ccc(C#Cc3cnccn3)cc12` [Compound 83, 1-(2-((2S,4R)-2-(2′-chloro-2-fluorobiphenyl-3-ylcarbamoyl)-4-fluoropyrrolidin-1-yl)-2-oxoethyl)-5-(pyrazin-2-ylethynyl)-1H-indazole-3-carboxamide] came in with an IC50 of less than 1000 nM.
The same measure for `NC(=O)c1nn(CC(=O)N2C[C@H](F)C[C@H]2C(=O)Nc2cncc(C(F)(F)F)n2)c2ccc(C#Cc3ncc(F)cn3)cc12` [Compound 70, 1-(2-((2S,4R)-4-fluoro-2-(6-(trifluoromethyl)pyrazin-2-ylcarbamoyl)pyrrolidin-1-yl)-2-oxoethyl)-5-((5-fluoropyrimidin-2-yl)ethynyl)-1H-indazole-3-carboxamide]: less than 1000 nM; for `NC(=O)c1nn(CC(=O)N2C[C@H](F)C[C@H]2C(=O)Nc2cccc(Cl)c2F)c2ccc(C#Cc3ncccn3)cc12` [Compound 25, 1-(2-((2S,4R)-2-(3-chloro-2-fluorophenylcarbamoyl)-4-fluoropyrrolidin-1-yl)-2-oxoethyl)-5-(pyrimidin-2-ylethynyl)-1H-indazole-3-carboxamide]: less than 1000 nM.
